Source: patent US20120004281A1, “RNA Interference Mediated Inhibition of the Nerve Growth Factor Beta Chain (NGFB) Gene Expression Using Short Interfering Nucleic Acid (siNA)” (Merck Sharp & Dohme Corp, priority 2009, published 2012)
[invAb] = inverted abasic unit; m = 2'-O-methyl; r = 2'-OH (RNA); f = 2'-fluoro

System: NGFβ mRNA
Assay: NGFβ mRNA knock-down in Calu-1 cells (RNAiMax transfection, Taqman RT-PCR)
Format: cell-based, human
Details: human Calu-1 cells, 10 nM siNA, 24 hrs post-transfection, relative to non-targeting control, normalized to GAPDH
Protocol: Calu-1 (human; ATCC cat# HTB-54): Cells were cultured at 37° C. in the presence of 5% CO2 and grown in McCoy's 5a medium supplemented with fetal bovine serum at a final concentration of 10% and 100 μg/mL of streptomycin and 100 U/mL penicillin.
All transfections were performed using RNAiMax (Invitrogen Cat# 13778-150) as per the manufacturer's instructions.
Cells were plated in all wells of a tissue-culture treated, 96-well plate at a final count of 5,000 cells/well in […], of appropriate culture media. Cells were cultured for 24 hours after plating at 37° C. in the presence of 5% CO2.
After 24 hours, complexes containing siNA and RNAiMax were created as follows: A solution of RNAiMax diluted 33-fold in OPTI-MEM was prepared. In parallel, solutions of the siNAs for testing were prepared to a final concentration of 120 nM in OPTI-MEM. After incubation of RNAiMax/OPTI-MEM solution at room temperature for 5 min, an equal volume of the siRNA solution and the RNAiMax solution were added together for each of the siNAs.
This solution was incubated at room temperature for 20 minutes. After incubation, 20 uL of the solution was added to each of the relevant wells.
The final concentration of siNA in each well was 10 nM and the final volume of RNAiMax in each well was 0.3u1.
The time of incubation with the RNAiMax-siNA complexes was 24 hours, unless otherwise indicated. There was no change in media between the transfection and harvesting of the cells unless otherwise indicated.
Dose response curves were carried out in a similar fashion in 96-well plates, while maintaining a constant amount of RNAiMax in each transfection.
RNA was extracted from a 96-well plate using the TaqMan® Gene Expression Cells-to-CT™ Kit (Cat# 4399002) with a modified protocol. Briefly, a 60 uL (1 plate) or 110 uL (2 plates) of the Lysis Solution with DNase I was dispensed into each well of the Lysis Buffer Plate (twin.tec full skirt plate). The lysis buffer and stop plates were stored at 4° C. until the cells were washed.
The plate was spun at 1100 rpm for 5 minutes. The culture medium was aspirated and discarded from the wells of the culture plate. The lysis was performed automatically using a BioMek FX instrument and method. After the Biomek method was completed, the lysis plate was incubated for 2 min. at room temperature. The lysis plate can be stored for 2 hours at 4° C., or at −20° C. or −80° C. for two months.
Each well of the reverse transcription plate required 10 uL of 2× reverse transcriptase Buffer, luL of 20× reverse transcription enzyme and 2 uL of nuclease-free water. The reverse transcription master mix was prepared by mixing 2× reverse transcription buffer, 20× reverse transcription enzyme mix, and nuclease-free water. 13 uL of the reverse transcription master mix was dispensed into each well of the reverse transcription plate (semi-skirted). A separate reverse transcription plate was prepared for each cell plate. The plate was loaded onto a Biomek NX or Biomek FX Dual-96 and the Biomek method was run. The program is programmed to automatically added 7 uL of lysate from the cell lysis procedure described above into each well of the reverse transcription plate. The plate is sealed and spun on a centrifuge (1000 rpm for 30 seconds) to settle the contents to the bottom of the reverse transcription plate. The plate is placed in a thermocycler at 37° C. for 60 min, 95° C. for 5 min, and 4° C. until the plate is removed from the thermocycler. Upon removal, if not used immediately, the plate was frozen at −20° C.
A series of probes and primers were used to detect the various mRNA transcripts of the genes of NGFβ, BDNF and GAPDH in human cell lines. All the Taqman probes and primers for the experiments here-in described were supplied as pre-validated sets by Applied Biosystems, Inc. (see Table 3). The assays were performed on an ABI 7900 instrument, according to the manufacturer's instructions. […]

Substance: 25427-DC: siNA duplex, NGFβ target site 516; sense B cucAcAGGAGcAAGcGGuc TTB (SEQ ID NO: 79), antisense GACcGcuuGcuccuGuGAGUU (SEQ ID NO: 80) (sense CUCACAGGAGCAAGCGGUCTT; antisense GACCGCUUGCUCCUGUGAGUU; sense: DNA at AGT, 2'-fluoro at CU, [invAb] at 5' end, 3' end, backbone not given here; antisense: sugars from the 5' end rrrfmfffmfffffmfmmmmm, backbone not given here)
- % KD in CaLu-1 Cells: 6%

Substance: 25408-DC: siNA duplex, NGFβ target site 653; sense B GAGGuGAAcAuuAAcAAcA TTB (SEQ ID NO: 41), antisense UGUuGuuAAuGuucAccucUU (SEQ ID NO: 42) (sense GAGGUGAACAUUAACAACATT; antisense UGUUGUUAAUGUUCACCUCUU; sense: DNA at AGT, 2'-fluoro at CU, [invAb] at 5' end, 3' end, backbone not given here; antisense: sugars from the 5' end rrrfmffmmfmfffmffffmm, backbone not given here)
- % KD in CaLu-1 Cells: 26%

Substance: 25412-DC: siNA duplex, NGFβ target site 267; sense B cccAAGcccAcuGGAcuAA TTB (SEQ ID NO: 49), antisense UUAGuccAGuGGGcuuGGGUU (SEQ ID NO: 50) (sense CCCAAGCCCACUGGACUAATT; antisense UUAGUCCAGUGGGCUUGGGUU; sense: DNA at AGT, 2'-fluoro at CU, [invAb] at 5' end, 3' end, backbone not given here; antisense: sugars from the 5' end rrrmfffmmfmmmfffmmmmm, backbone not given here)
- % KD in CaLu-1 Cells: −3%

Substance: 25429-DC: siNA duplex, NGFβ target site 469; sense B ucAGGAucuGGAcuucGAG TTB (SEQ ID NO: 83), antisense CUCGAAGuccAGAuccuGAUU (SEQ ID NO: 84) (sense UCAGGAUCUGGACUUCGAGTT; antisense CUCGAAGUCCAGAUCCUGAUU; sense: DNA at AGT, 2'-fluoro at CU, [invAb] at 5' end, 3' end, backbone not given here; antisense: sugars from the 5' end rrrmmmmfffmmmffffmmmm, backbone not given here)
- % KD in CaLu-1 Cells: 1%

Substance: 25402-DC: siNA duplex, NGFβ target site 651; sense B GAGAGGuGAAcAuuAAcAA TTB (SEQ ID NO: 29), antisense UUGuuAAuGuucAccucucUU (SEQ ID NO: 30) (sense GAGAGGUGAACAUUAACAATT; antisense UUGUUAAUGUUCACCUCUCUU; sense: DNA at AGT, 2'-fluoro at CU, [invAb] at 5' end, 3' end, backbone not given here; antisense: sugars from the 5' end rrrffmmfmfffmffffffmm, backbone not given here)
- % KD in CaLu-1 Cells: 53%

Substance: 25423-DC: siNA duplex, NGFβ target site 519; sense B AcAGGAGcAAGcGGucAuc TTB (SEQ ID NO: 71), antisense GAUGAccGcuuGcuccuGuUU (SEQ ID NO: 72) (sense ACAGGAGCAAGCGGUCAUCTT; antisense GAUGACCGCUUGCUCCUGUUU; sense: DNA at AGT, 2'-fluoro at CU, [invAb] at 5' end, 3' end, backbone not given here; antisense: sugars from the 5' end rrrmmffmfffmfffffmfmm, backbone not given here)
- % KD in CaLu-1 Cells: 40%

Substance: 25409-DC: siNA duplex, NGFβ target site 468; sense B cucAGGAucuGGAcuucGA TTB (SEQ ID NO: 43), antisense UCGAAGuccAGAuccuGAGUU (SEQ ID NO: 44) (sense CUCAGGAUCUGGACUUCGATT; antisense UCGAAGUCCAGAUCCUGAGUU; sense: DNA at AGT, 2'-fluoro at CU, [invAb] at 5' end, 3' end, backbone not given here; antisense: sugars from the 5' end rrrmmmfffmmmffffmmmmm, backbone not given here)
- % KD in CaLu-1 Cells: 52%

Substance: 25420-DC: siNA duplex, NGFβ target site 510; sense B AcAGGAcucAcAGGAGcAA TTB (SEQ ID NO: 65), antisense UUGcuccuGuGAGuccuGuUU (SEQ ID NO: 66) (sense ACAGGACUCACAGGAGCAATT; antisense UUGCUCCUGUGAGUCCUGUUU; sense: DNA at AGT, 2'-fluoro at CU, [invAb] at 5' end, 3' end, backbone not given here; antisense: sugars from the 5' end rrrfffffmfmmmffffmfmm, backbone not given here)
- % KD in CaLu-1 Cells: 44%

Substance: 25426-DC: siNA duplex, NGFβ target site 676; sense B AuucAAAcAGuAcuuuuuu TTB (SEQ ID NO: 77), antisense AAAAAAGuAcuGuuuGAAuUU (SEQ ID NO: 78) (sense AUUCAAACAGUACUUUUUUTT; antisense AAAAAAGUACUGUUUGAAUUU; sense: DNA at AGT, 2'-fluoro at CU, [invAb] at 5' end, 3' end, backbone not given here; antisense: sugars from the 5' end rrrmmmmfmffmfffmmmfmm, backbone not given here)
- % KD in CaLu-1 Cells: 38%

Substance: 25407-DC: siNA duplex, NGFβ target site 518; sense B cAcAGGAGcAAGcGGucAu TTB (SEQ ID NO: 39), antisense AUGAccGcuuGcuccuGuGUU (SEQ ID NO: 40) (sense CACAGGAGCAAGCGGUCAUTT; antisense AUGACCGCUUGCUCCUGUGUU; sense: DNA at AGT, 2'-fluoro at CU, [invAb] at 5' end, 3' end, backbone not given here; antisense: sugars from the 5' end rrrmffmfffmfffffmfmmm, backbone not given here)
- % KD in CaLu-1 Cells: 47%

Substance: 25418-DC: siNA duplex, NGFβ target site 650; sense B GGAGAGGuGAAcAuuAAcA TTB (SEQ ID NO: 61), antisense UGUuAAuGuucAccucuccUU (SEQ ID NO: 62) (sense GGAGAGGUGAACAUUAACATT; antisense UGUUAAUGUUCACCUCUCCUU; sense: DNA at AGT, 2'-fluoro at CU, [invAb] at 5' end, 3' end, backbone not given here; antisense: sugars from the 5' end rrrfmmfmfffmfffffffmm, backbone not given here)
- % KD in CaLu-1 Cells: 26%

Substance: 25410-DC: siNA duplex, NGFβ target site 451; sense B ccGuGAAGcuGcAGAcAcu TTB (SEQ ID NO: 45), antisense AGUGucuGcAGcuucAcGGUU (SEQ ID NO: 46) (sense CCGUGAAGCUGCAGACACUTT; antisense AGUGUCUGCAGCUUCACGGUU; sense: DNA at AGT, 2'-fluoro at CU, [invAb] at 5' end, 3' end, backbone not given here; antisense: sugars from the 5' end rrrmfffmfmmffffmfmmmm, backbone not given here)
- % KD in CaLu-1 Cells: 70%
